Data from patent publication US20180099931A1 (AbbVie S.à.r.l., priority 2016, published 2018).
pEC50: −log10 of the molar value. Where two headings read alike, the source gives them in different places.

Molecular target: T1, F508delCFTR (Homo sapiens, UniProt P13569, DEL508-508)
T1 construct: expressed in transfected cells; host or cells: CFBE41o- human lung-derived epithelial cells (CFBE4lo-F508delCFTR-HRP), doxycycline-inducible
Experiment: Cell Surface Expression-Horse Radish Peroxidase (CSE-HRP) Assay;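 for Maximum % activity (with co-corrector): co-corrector and positive control are both the same reference corrector at 2 µM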;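 for Maximum % activity (without co-corrector): percent of the 2 µM on-plate positive control corrector response above DMSO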
Type: cell-based
Conditions: for Maximum % activity (with co-corrector) / Emax: maximum at any tested concentration, normalized to on-plate positive control; for Emax: read-out: Maximum % activity (without co-corrector)

[1] = test compound without co-corrector, read-out: EC50 (without co-corrector)
[2] = with co-corrector (2 μM of 3-[(2R,4R)-4-({[1-(2,2-difluoro-1,3-benzodioxol-5-yl)cyclopropyl]carbonyl}amino)-7-methoxy-3,4-dihydro-2H-chromen-2-yl]benzoic acid), read-out: EC50 (with co-corrector)
[3] = test compound without co-corrector
[4] = with co-corrector (2 μM of 3-[(2R,4R)-4-({[1-(2,2-difluoro-1,3-benzodioxol-5-yl)cyclopropyl]carbonyl}amino)-7-methoxy-3,4-dihydro-2H-chromen-2-yl]benzoic acid)
[5] = CSE-HRP, test compound without co-corrector, read-out: EC50 (without co-corrector)
[6] = CSE-HRP, with co-corrector (2 μM of 3-[(2R,4R)-4-({[1-(2,2-difluoro-1,3-benzodioxol-5-yl)cyclopropyl]carbonyl}amino)-7-methoxy-3,4-dihydro-2H-chromen-2-yl]benzoic acid), read-out: EC50 (with co-corrector)
[7] = CSE-HRP, with co-corrector (2 μM)

T1 sequence (P13569 with tags, fused parts or gaps DEL508-508): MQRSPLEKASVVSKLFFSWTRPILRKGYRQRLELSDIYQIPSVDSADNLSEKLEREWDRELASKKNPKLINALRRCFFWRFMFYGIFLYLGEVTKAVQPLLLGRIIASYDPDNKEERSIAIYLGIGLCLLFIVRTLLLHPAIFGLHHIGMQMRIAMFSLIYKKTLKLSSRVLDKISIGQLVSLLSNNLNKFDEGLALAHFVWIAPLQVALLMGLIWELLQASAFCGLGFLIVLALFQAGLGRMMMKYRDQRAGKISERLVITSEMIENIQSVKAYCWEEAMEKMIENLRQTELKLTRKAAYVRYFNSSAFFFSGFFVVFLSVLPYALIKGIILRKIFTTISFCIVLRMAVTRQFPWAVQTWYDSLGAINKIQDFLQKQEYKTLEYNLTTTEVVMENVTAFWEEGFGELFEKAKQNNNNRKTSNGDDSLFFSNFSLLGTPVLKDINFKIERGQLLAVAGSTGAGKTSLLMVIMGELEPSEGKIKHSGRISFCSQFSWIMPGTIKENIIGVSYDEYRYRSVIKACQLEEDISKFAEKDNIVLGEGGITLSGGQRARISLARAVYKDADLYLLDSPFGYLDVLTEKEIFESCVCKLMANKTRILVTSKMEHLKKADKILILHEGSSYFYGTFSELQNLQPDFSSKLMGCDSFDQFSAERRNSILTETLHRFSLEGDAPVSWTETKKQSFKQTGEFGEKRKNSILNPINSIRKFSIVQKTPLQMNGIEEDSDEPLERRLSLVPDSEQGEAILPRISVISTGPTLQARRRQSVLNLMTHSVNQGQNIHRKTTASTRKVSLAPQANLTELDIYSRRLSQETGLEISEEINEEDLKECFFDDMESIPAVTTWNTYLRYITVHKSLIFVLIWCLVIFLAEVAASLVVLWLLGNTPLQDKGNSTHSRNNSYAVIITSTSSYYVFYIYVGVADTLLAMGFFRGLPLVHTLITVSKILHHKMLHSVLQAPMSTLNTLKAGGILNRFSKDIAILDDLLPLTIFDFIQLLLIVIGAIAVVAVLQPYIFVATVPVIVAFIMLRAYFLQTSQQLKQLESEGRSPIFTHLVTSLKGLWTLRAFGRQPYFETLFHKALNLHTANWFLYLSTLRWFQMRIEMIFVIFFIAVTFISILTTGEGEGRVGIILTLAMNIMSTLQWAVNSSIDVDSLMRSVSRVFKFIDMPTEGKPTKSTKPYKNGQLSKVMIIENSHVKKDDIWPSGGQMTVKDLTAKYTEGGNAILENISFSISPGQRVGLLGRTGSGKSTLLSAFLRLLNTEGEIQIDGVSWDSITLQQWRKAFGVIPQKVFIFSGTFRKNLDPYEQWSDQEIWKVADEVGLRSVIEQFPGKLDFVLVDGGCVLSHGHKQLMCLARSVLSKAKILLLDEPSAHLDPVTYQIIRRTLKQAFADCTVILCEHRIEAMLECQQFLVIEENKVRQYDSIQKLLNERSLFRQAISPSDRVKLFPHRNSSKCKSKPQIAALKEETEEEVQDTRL

SMILES | pEC50 [1] | pEC50 [2] | Maximum % activity (with co-corrector) (with co-corrector (2 μM)) | Emax (without co-corrector) [%] | Emax [3] [%] | Maximum % activity (with co-corrector) [4] | pEC50 [5] | pEC50 [6] | Maximum % activity (with co-corrector) [7] | Emax (CSE-HRP, without co-corrector) [%]
COc1ccc(-c2ccccc2F)cc1CN[C@H]1[C@H](C(C)(C)C)[C@@H](C(=O)O)N(C(=O)C2CCCCC2)[C@H]1c1ccccc1 [Example I-126] | > 6.00 | > 6.00 | +++ (≥350) | > 200 | – | – | – | – | – | –
COc1ccc(C(C)(C)C)cc1CN[C@H]1[C@H](C(C)(C)C)[C@@H](C(=O)O)N(C(=O)c2cnn(C)c2-c2ccccc2)[C@H]1c1ccccc1 [II-358] | 5.00 to 6.00 | 5.00 to 6.00 | – | – | < 100 | +++ (≥350) | – | – | – | –
COc1ncc(C(F)(F)F)cc1CN[C@H]1[C@H](C(C)(C)C)[C@@H](C(=O)O)N(C(=O)[C@H]2CCCCO2)[C@H]1c1ccccc1C(C)C [Example 85, (2S,3S,4S,5S)-3-tert-butyl-4-({[2-methoxy-5-(trifluoromethyl)pyridin-3-yl]methyl}amino)-1-[(2R)-oxane-2-carbonyl]-5-[2-(propan-2-yl)phenyl]pyrrolidine-2-carboxylic acid] | 5.00 to 6.00 | > 6.00 | +++ (≥350) | > 200 | – | – | – | – | – | –
COc1ncc(C2CCC2)cc1CN[C@H]1[C@H](C(C)(C)C)[C@@H](C(=O)O)N(C(=O)C2CCCCC2)[C@H]1c1cccc2c1OC(C)(C)C2 [Example I-307] | – | – | – | – | – | – | > 6.00 | > 6.00 | +++ (≥350) | > 200
COc1ccc(C(C)(C)C)cc1CN[C@H]1[C@H](C(C)(C)C)[C@@H](C(=O)O)N(C(=O)[C@H]2CCC[C@H](OC)C2)[C@H]1c1cccnc1N(C)C (relative stereo) [II-448] | 5.00 to 6.00 | 5.00 to 6.00 | – | – | > 200 | +++ (≥350) | – | – | – | –
COc1ncc(C2CCC2)cc1CN[C@H]1[C@H](C(C)(C)C)[C@@H](C(=O)O)N(C(=O)C2CCCCC2C(F)(F)F)[C@H]1c1ccccc1 (stereo partly drawn) [III-214] | > 6.00 | > 6.00 | +++ (≥350) | – | 100 to 200 | – | – | – | – | –
COc1ccc(C(C)(C)C)cc1CN[C@H]1[C@H](C(C)(C)C)[C@@H](C(=O)O)N(C(=O)c2cc(C)nc(C)c2)[C@H]1c1ccccc1 [II-197] | – | – | – | – | – | – | 5.00 to 6.00 | 5.00 to 6.00 | ++ (≥150 and <350) | < 100
COc1ccc(C(C)(C)C)cc1CN[C@@H]1[C@@H](C(C)(C)C)[C@H](C(=O)O)N(C(=O)OC2CCC2)[C@@H]1c1ccccc1 (racemic) [II-90] | – | – | – | – | – | – | 5.00 to 6.00 | 5.00 to 6.00 | +++ (≥350) | > 200
COc1ccc(C(C)(C)C)cc1CN[C@H]1[C@H](C(C)(C)C)[C@@H](C(=O)O)N(C(=O)c2cccnc2)[C@H]1c1ccccc1 [Example I-64] | 5.00 to 6.00 | 5.00 to 6.00 | +++ (≥350) | < 100 | – | – | – | – | – | –
COc1ccc(C(F)(F)F)cc1CN[C@H]1[C@H](C(C)(C)C)[C@@H](C(=O)O)N(C(=O)[C@@H]2CCCO2)[C@H]1c1cccnc1C1CC1 [Example I-269] | – | – | – | – | – | – | 5.00 to 6.00 | 5.00 to 6.00 | +++ (≥350) | 100 to 200
Cc1cc(CN[C@H]2[C@H](C(C)(C)C)[C@@H](C(=O)O)N(C(=O)C3CCCCC3)[C@H]2c2ccccc2)cc(C)c1OC(F)F [III-141] | 5.00 to 6.00 | 5.00 to 6.00 | ++ (≥150 and <350) | – | < 100 | – | – | – | – | –
COc1ccc(C2CC2)cc1CN[C@H]1[C@H](C(C)(C)C)[C@@H](C(=O)O)N(C(=O)C2CCCCC2)[C@H]1c1ccccc1 [II-352] | 5.00 to 6.00 | > 6.00 | – | – | > 200 | +++ (≥350) | – | – | – | –
COc1ncc(C(C)c2ccccc2)cc1CN[C@H]1[C@H](C(C)(C)C)[C@@H](C(=O)O)N(C(=O)C2CCCCC2)[C@H]1c1ccccc1 (stereo partly drawn) [Example I-75] | > 6.00 | > 6.00 | +++ (≥350) | 100 to 200 | – | – | – | – | – | –
COc1ccc(C(C)(C)C)cc1CN[C@H]1[C@H](C(C)(C)C)[C@@H](C(=O)O)N(C(=O)[C@H]2COc3ccccc3O2)[C@H]1c1ccccc1 [Example I-167] | 5.00 to 6.00 | > 6.00 | +++ (≥350) | > 200 | – | – | – | – | – | –
COc1ccc(C2(C)CCC2)cc1CN[C@H]1[C@H](C(C)(C)C)[C@@H](C(=O)O)N(C(=O)OC(C)C)[C@H]1c1cccnc1N(C)C [Example 80, (2S,3S,4S,5S)-3-tert-butyl-5-[2-(dimethylamino)pyridin-3-yl]-4-({[2-methoxy-5-(1-methylcyclobutyl)phenyl]methyl}amino)-1-{[(propan-2-yl)oxy]carbonyl}pyrrolidine-2-carboxylic acid] | 5.00 to 6.00 | 5.00 to 6.00 | +++ (≥350) | > 200 | – | – | – | – | – | –
COc1ccc(C(C)(C)C)cc1CN[C@H]1[C@H](C(C)(C)C)[C@@H](C(=O)O)N(C(=O)c2cc3occc3n2C)[C@H]1c1ccccc1 [Example I-102] | 5.00 to 6.00 | 5.00 to 6.00 | +++ (≥350) | 100 to 200 | – | – | – | – | – | –
COc1ccc(C(C)(C)C)cc1CN[C@H]1[C@H](C(C)(C)C)[C@@H](C(=O)O)N(C(=O)C2CCCCC2)[C@H]1c1ccccc1OC [II-140] | – | – | – | – | – | – | 5.00 to 6.00 | > 6.00 | +++ (≥350) | 100 to 200
COc1ccc(C(C)(C)C)cc1CN[C@H]1[C@H](C(C)(C)C)[C@@H](C(=O)O)N(C(=O)C2CCc3ccccc32)[C@H]1c1ccccc1 (stereo partly drawn) [II-337] | > 6.00 | > 6.00 | – | – | > 200 | +++ (≥350) | – | – | – | –
COC1(CN[C@H]2[C@H](C(C)(C)C)[C@@H](C(=O)O)N(C(=O)C3CCCCC3)[C@H]2c2ccccc2)CCCCC1 [II-394] | 5.00 to 6.00 | 5.00 to 6.00 | – | – | 100 to 200 | +++ (≥350) | – | – | – | –
CC(C)OC(=O)N1[C@H](C(=O)O)[C@@H](C(C)(C)C)[C@H](NCC2CCCN(C(=O)OCc3ccccc3)C2)[C@@H]1c1ccccc1 (stereo partly drawn) [II-583] | 5.00 to 6.00 | 5.00 to 6.00 | – | – | 100 to 200 | +++ (≥350) | – | – | – | –
COc1ccc(C(C)(C)C)cc1CN[C@H]1[C@H](C(C)(C)C)[C@@H](C(=O)O)N(C(=O)OC2CCCC2)[C@H]1c1ccccc1 [Example I-119] | 5.00 to 6.00 | > 6.00 | +++ (≥350) | > 200 | – | – | – | – | – | –
COc1ccc(C(C)(C)C)cc1CN[C@H]1[C@H](C(C)(C)C)[C@@H](C(=O)O)N(C(=O)Cc2ccccc2C)[C@H]1c1ccccc1 [II-205] | – | – | – | – | – | – | > 6.00 | > 6.00 | +++ (≥350) | > 200
COc1cc(C(F)(F)F)ccc1CN[C@@H]1[C@@H](C(C)(C)C)[C@H](C(=O)O)N(C(=O)C2C3COCC32)[C@@H]1c1ccccc1N(C)C (mixture of isomers) [Example I-24] | 5.00 to 6.00 | 5.00 to 6.00 | +++ (≥350) | > 200 | – | – | – | – | – | –
COc1ncc(C(F)(F)F)cc1CN[C@H]1[C@H](C(C)(C)C)[C@@H](C(=O)O)N(C(=O)C2CCC(C)(C)O2)[C@H]1c1ccccc1 (stereo partly drawn) [II-434] | 5.00 to 6.00 | 5.00 to 6.00 | – | – | 100 to 200 | +++ (≥350) | – | – | – | –
COc1ccc(C(F)(F)F)cc1CN[C@@H]1[C@@H](C(C)(C)C)[C@H](C(=O)O)N(C(=O)[C@@H]2CCCO[C@@H]2C)[C@@H]1c1ccccc1 (racemic) [II-34] | – | – | – | – | – | – | 5.00 to 6.00 | 5.00 to 6.00 | +++ (≥350) | > 200
COc1cc(C(F)(F)F)ccc1CN[C@H]1[C@H](C(C)(C)C)[C@@H](C(=O)O)N(C(=O)CC(C)C)[C@H]1c1ccccc1 [II-558] | 5.00 to 6.00 | 5.00 to 6.00 | – | – | 100 to 200 | +++ (≥350) | – | – | – | –
COc1cc(C(F)(F)F)ccc1CN[C@H]1[C@H](C(C)(C)C)[C@@H](C(=O)O)N(C(=O)OC(C)C)[C@H]1c1cccnc1N(C)C [II-514] | 5.00 to 6.00 | 5.00 to 6.00 | – | – | 100 to 200 | +++ (≥350) | – | – | – | –
CN(C)c1ncc(C(F)(F)F)cc1CN[C@@H]1[C@@H](C(C)(C)C)[C@H](C(=O)O)N(C(=O)C2CCCCC2)[C@@H]1c1ccccc1 (racemic) [III-36] | < 5.00 | 5.00 to 6.00 | – | – | < 100 | ++ (≥150 and <350) | – | – | – | –
COc1cc(C(C)(C)C)ccc1CN[C@H]1[C@H](C(C)(C)OC)[C@@H](C(=O)O)N(C(=O)C2CCCCC2)[C@H]1c1ccccc1 [Example I-62] | 5.00 to 6.00 | 5.00 to 6.00 | +++ (≥350) | 100 to 200 | – | – | – | – | – | –
COc1ccc(C(F)(F)F)cc1CN[C@@H]1[C@@H](C(C)(C)C)[C@H](C(=O)O)N(C(=O)Cc2ccccc2)[C@@H]1c1ccccc1 (racemic) [II-32] | – | – | – | – | – | – | 5.00 to 6.00 | 5.00 to 6.00 | +++ (≥350) | < 100
